US5464607A, “5,5'-/(1,3-propanediyl) bis-/imino(2-oxo-2,1-ethanediyl)acetylimino/bis(2,4,6-triiodo-1,3-benzen edicarboxylamides), and contrast media containing them” (Dibra S.p.A., priority 1991, dated 1995)

Experiments:
[1] = Viscosity (ROTOVISCO RV100CV100-LV100, sensor ZB15); type: physicochemical
Description: ^b) Calculated with ROTOVISCO^(R) RV100CV100-LV100, sensor ZB15.

[2] = Osmolality (steampressure osmometer Wescor mod 5500); type: physicochemical
Description: ^a) Calculated with a steampressure osmometer Wescor(R) mod 5500,
calibrated with NaCl aqueous solutions.

physchem = conditions: water
[3] = water

- Viscosity at 20° C. ([1]; 200 mgI/ml): 5,7 mPa·s
- Viscosity at 20° C. ([1]; 300 mgI/ml): 24 mPa·s
- Viscosity at 20° C. ([1]; 400 mgI/ml): 112 mPa·s
- Viscosity at 37° C. ([1]; 200 mgI/ml): 3,4 mPa·s
- Viscosity at 37° C. ([1]; 300 mgI/ml): 12 mPa·s
- Viscosity at 37° C. ([1]; 400 mgI/ml): 41 mPa·s
- Osmolality ([2]; 200 mgI/ml): 0,17 osmol/kg H2 O
- Osmolality ([2]; 300 mgI/ml): 0,25 osmol/kg H2 O
- Osmolality ([2]; 400 mgI/ml): 0,72 osmol/kg H2 O
- solubility (physchem): > 1000 mg/mL
- Solubility in H2 O at 30° C. [3]: > 100 g in 100 ml
SMILES: CC(=O)N(CC(=O)NCC(O)CNC(=O)CN(C(C)=O)c1c(I)c(C(=O)NCC(O)CO)c(I)c(C(=O)NCC(O)CO)c1I)c1c(I)c(C(=O)NCC(O)CO)c(I)c(C(=O)NCC(O)CO)c1I (centres unmarked) [5,5'-[(2-hydroxy-1,3-propanediyl)bis [imino(2-oxo-2,1-ethanediyl)acetylimino]]bis[N,N'-bis(2,3-dihydroxypropyl)-2,4,6-triiodo-1,3-benzenedicarboxyamide]]
